Assay results reported in patent US12168763B2, “Microorganisms and methods for reducing bacterial contamination” (Melio Peptide Systems Inc., priority 2020, dated 2024).
“Also recorded” adds a separate entry of the source. Where no end group is shown, it is not given here.

How the values were obtained:
[1] = test system: P. pentosaceus NCCB 31016; experiment: Soft-agar overlay screen of peptide-expressing yeast (BY4742); details: soft-agar overlay, peptide-expressing yeast
L. fermentum NCCB 46038 [2] = experiment: as above
L. lactis NCCB 26066 = experiment: as above
L. reuteri CCUG 32624 = experiment: as above
[3] = test system: L. delbrueckii CCUG 34222; experiment: as above
W. confusa CCUG30943 = experiment: as above
E. faecium NCCB 86023 = experiment: as above
W. confusa CCUG30113 = experiment: as above
[4] = test system: P. pentosaceus NCCB 31016; experiment: Soft-agar overlay assay of S. cerevisiae M2 strain expressing pediocin PA-1 variants; details: S. cerevisiae M2 transformants; compared to wild-type pediocin PA-1
[5] = test system: L. delbrueckii CCUG 34222T; experiment: as above; details: S. cerevisiae M2 transformants; compared to wild-type pediocin PA-1
Lactobacillus casei = experiment: Soft-agar overlay screen of peptide-expressing yeast, other lactic acid bacteria; format: cell-based; details: sometimes weak
L. fermentum NCCB 46038 [6] = experiment: Soft-agar overlay assay of S. cerevisiae BY4742 secreting persulcatusin variants from pHVXU plasmids; details: for Growth inhibition zones of L. fermentum: FIG. 7, BY4742 with pHVXU plasmids, 30° C., 1 day; for Change in activity: alanine scanning of persulcatusin, relative to wild-type, soft-agar overlay
Lactobacillus amylovorus = experiment: Soft-agar overlay screen of peptide-expressing yeast, other lactic acid bacteria; format: cell-based; details: sometimes weak

Substance	Inhibition, P. pentosaceus NCCB 31016 [1]	Inhibition, L. fermentum NCCB 46038 (L. fermentum NCCB 46038 [2])	Inhibition, L. lactis NCCB 26066 (L. lactis NCCB 26066)	Inhibition, L. reuteri CCUG 32624 (L. reuteri CCUG 32624)	Inhibition, L. delbrueckii CCUG 34222 [3]	Inhibition, W. confusa CCUG30943 (W. confusa CCUG30943)	Inhibition, E. faecium NCCB 86023 (E. faecium NCCB 86023)	Inhibition, W. confusa CCUG30113 (W. confusa CCUG30113)	Growth inhibition zone (halo) of P. pentosaceus [4]	Growth inhibition zone (halo) of L. delbrueckii [5]	also measured
Bactofencin A	+	+	+	−	+	−	+	−			
Coagulin A	+	−	+	−	+	−	+	−			
Engineered pediocin PA-1 with [K20A] (KYYGNGVTCGKHSCSVDWGAATTCIINNGAMAWATGGHQGNHKC; ends and bridges not checked; cysteine pairing not given here) [pediocin PA-1 K20A]									Growth inhibition zones of P. pentosaceus were observable	Growth inhibition zones of L. delbrueckii were observable	
Engineered pediocin PA-1 with [S13A] (KYYGNGVTCGKHACSVDWGKATTCIINNGAMAWATGGHQGNHKC; ends and bridges not checked; cysteine pairing not given here) [pediocin PA-1 S13A]									Growth inhibition zones of P. pentosaceus were observable	Growth inhibition zones of L. delbrueckii were observable	
Engineered pediocin PA-1 with [S15A] (KYYGNGVTCGKHSCAVDWGKATTCIINNGAMAWATGGHQGNHKC; ends and bridges not checked; cysteine pairing not given here) [pediocin PA-1 S15A]									Growth inhibition zones of P. pentosaceus were observable	Growth inhibition zones of L. delbrueckii were observable	
Engineered pediocin PA-1 with [pediocin PA-1 G19A, Engineered pediocin PA-1 with [G19A]]									Growth inhibition zones of P. pentosaceus were observable		
Engineered pediocin PA-1 with [pediocin PA-1 K1A, Engineered pediocin PA-1 with [K1A]]									largest halo	largest halo	
Engineered pediocin PA-1 with [pediocin PA-1 K1A/G19A, Engineered pediocin PA-1 with [K1A/G19A]]									Growth inhibition zones of P. pentosaceus and L. delbrueckii were observable	Growth inhibition zones of P. pentosaceus and L. delbrueckii were observable	
Engineered pediocin PA-1 with [pediocin PA-1 K1A/K20A, Engineered pediocin PA-1 with [K1A/K20A]]									Growth inhibition zones of P. pentosaceus and L. delbrueckii were observable	Growth inhibition zones of P. pentosaceus and L. delbrueckii were observable	
Engineered pediocin PA-1 with [pediocin PA-1 K1A/S13A, Engineered pediocin PA-1 with [K1A/S13A]]									Growth inhibition zones of P. pentosaceus and L. delbrueckii were observable	Growth inhibition zones of P. pentosaceus and L. delbrueckii were observable	
Engineered pediocin PA-1 with [pediocin PA-1 K1A/S15A, Engineered pediocin PA-1 with [K1A/S15A]]									Growth inhibition zones of P. pentosaceus and L. delbrueckii were observable	Growth inhibition zones of P. pentosaceus and L. delbrueckii were observable	
Engineered pediocin PA-1 with [pediocin PA-1 K1A/T22A, Engineered pediocin PA-1 with [K1A/T22A]]									largest halo		
Engineered pediocin PA-1 with [pediocin PA-1 K1T, Engineered pediocin PA-1 with [K1T]]										slightly bigger halo than wild-type pediocin PA-1; also recorded: Growth inhibition zones were observable	
Engineered pediocin PA-1 with [pediocin PA-1 T22A, Engineered pediocin PA-1 with [T22A]]									Growth inhibition zones of P. pentosaceus were observable		
Engineered persulcatusin with [Mutation S7-192-1, Engineered persulcatusin with [F6L/G9D/R13S/H14Q]]	−	+	−	+	−	+	−	+			Antibacterial activity against Lactobacillus casei (Lactobacillus casei): showed some antibacterial activity; Growth inhibition zones of L. fermentum (L. fermentum NCCB 46038 [6]): significantly bigger zones; Increase in Activity (L. fermentum NCCB 46038 [6]; random mutagenesis clones of persulcatusin, increase of growth inhibition zones): ++++; Antibacterial activity against Lactobacillus amylovorus (Lactobacillus amylovorus): showed some antibacterial activity
Enterocin A	+	−	+	−	+	−	−	−			
Hiracin JM79	−	−	−	−	−	−	+	−			
Leucocin C	+	−	+	−	+	−	+	−			
T32A: persulcatusin (SEQ ID NO: 1) alanine-scan variant T32A (GFGCPFNQGACHRHCRSIGRRGGYCAGLFKQACTCYSR; listed as Ixodes persulcatus) [Mutation T32A]											Change in activity (L. fermentum NCCB 46038 [6]): −
T34A: persulcatusin (SEQ ID NO: 1) alanine-scan variant T34A (GFGCPFNQGACHRHCRSIGRRGGYCAGLFKQTCACYSR; listed as Ixodes persulcatus) [Mutation T34A]											Change in activity (L. fermentum NCCB 46038 [6]): −
Ubericin A	+	−	+	−	+	−	−	−			
Wild-type persulcatusin [Wild-type persulcatusin [Ixodes persulcatus]]	−	+	−	−	−	−	−	+			Growth inhibition zones of L. fermentum (L. fermentum NCCB 46038 [6]): Growth inhibition zones of L. fermentum are observable
Y24A: persulcatusin (SEQ ID NO: 1) alanine-scan variant Y24A (GFGCPFNQGACHRHCRSIGRRGGACAGLFKQTCTCYSR; listed as Ixodes persulcatus) [Mutation Y24A]											Change in activity (L. fermentum NCCB 46038 [6]): −
Y36A: persulcatusin (SEQ ID NO: 1) alanine-scan variant Y36A (GFGCPFNQGACHRHCRSIGRRGGYCAGLFKQTCTCASR; listed as Ixodes persulcatus) [Mutation Y36A]											Change in activity (L. fermentum NCCB 46038 [6]): −
